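Values below derive from 48-hour exposures of cells grown in 96-well plates, with endpoints linearly interpolated between the two concentrations bracketing the appropriate inhibition level. TGI marks complete inhibition of growth.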
What was measured:
Assay in all cases: NCI-60 cell line screen, 48 h
SK-MEL-5 melanoma = tested on: SK-MEL-5 melanoma
SF-268 CNS = tested on: SF-268 CNS
KM12 colon = tested on: KM12 colon
SK-OV-3 ovarian = tested on: SK-OV-3 ovarian
SNB-75 CNS = tested on: SNB-75 CNS
NCI-H23 lung = tested on: NCI-H23 lung
NCI-H460 lung = tested on: NCI-H460 lung
TK-10 renal = tested on: TK-10 renal
IGROV1 ovarian = tested on: IGROV1 ovarian
RPMI-8226 leukemia = tested on: RPMI-8226 leukemia

SMILES | TGI (SK-MEL-5 melanoma) [µM] | TGI (SF-268 CNS) [µM] | TGI (KM12 colon) [µM] | TGI (SK-OV-3 ovarian) [µM] | TGI (SNB-75 CNS) [µM] | TGI (NCI-H23 lung) [µM] | TGI (NCI-H460 lung) [µM] | TGI (TK-10 renal) [µM] | TGI (IGROV1 ovarian) [µM] | TGI (RPMI-8226 leukemia) [µM]
C[N+](C)=c1ccc2nc3c(ccc4ccccc43)oc-2c1 | 27.5 | 29.7 | 32.2 | 33.5 | 32.5 | 27.2 | 37.7 | 31.1 | 17.2 | > 64.7
C/C(=N/NC(=S)Nc1cccc(Cl)c1)c1ccccn1 | 4 | 12.5 | 13.5 | 10.4 | 11.7 | 9.97 | 5.46 | 10.4 | 9.29 | 17.8
Cc1ccc(S(=O)(=O)NC(=O)NCCc2ccc(O)c(O)c2)cc1 | > 100 | > 100 | > 100 | > 100 | > 100 | > 100 | > 100 | > 100 | > 100 | > 100
Cn1c(=O)c2c(nc3n2CCC(=O)N3CCCCl)n(C)c1=O | > 100 | > 100 | > 100 | > 100 | > 100 | > 100 | > 100 | > 100 | > 100 | > 100
C[C@@H](NC(=O)[C@@H]1C[C@]1(C)CO)c1cccc2ccccc12 | > 100 | > 100 | > 100 | > 100 | > 100 | > 100 | > 100 | > 100 | > 100 | > 100
Brc1c2nc3ccccc3nc2n2ccc3ccccc3c12 | > 100 | > 100 | > 100 | > 100 | > 100 | > 100 | > 100 | > 100 | > 100 | > 100
O=C(N/N=C\c1cccs1)c1ccncc1 | > 100 | > 100 | > 100 | > 100 | > 100 | > 100 | > 100 | > 100 | > 100 | > 100
COCCOC(C)C(=O)C(O)S(=O)(=O)O (stereo not given) | > 100 | > 100 | > 100 | > 100 | > 100 | > 100 | > 100 | > 100 | > 100 | > 100
O=C1C(C(c2ccc([N+](=O)[O-])cc2)N2CCOCC2)=C(O)C(c2ccccc2)N1c1ccccc1 (stereo not given) | > 10 | > 10 | > 10 | > 10 | > 10 | > 10 | > 10 | > 10 | > 10 | > 10
Nc1nc(Nc2ccc(Cl)cc2)sc1C(=O)c1c[nH]c2ccccc12 | 24.3 | 60 | 51.1 | 46.4 | 24.3 | 27.8 | 21.3 | 31.8 | 37.1 | > 100
N=c1n(CC(=O)NC23CC4CC(CC(C4)C2)C3)c2ccccc2n1CC(=O)NC12CC3CC(CC(C3)C1)C2 | 3.24 | 3.72 | 2.98 | 29.1 | 4.12 | 3.13 | 3.17 | 3.08 | 3.1 | 6.07
CCCCOc1c(C(=O)O)cc(Br)cc1C(=O)O | > 100 | > 100 | > 100 | > 100 | > 100 | > 100 | > 100 | > 100 | > 100 | > 100
CCCCC(=C=C(C)CO)C1CCCN1C(=O)OC(C)(C)C (stereo not given) | 29.8 | 33.5 | 34.8 | 67.4 | 53.4 | 46.8 | 31.8 | 48.1 | 43.6 | 36.8
CC(=O)OC12CC(C(F)(F)F)(C(F)(F)F)OC1(OC(C)=O)CC(C(F)(F)F)(C(F)(F)F)O2 (stereo not given) | 5.81 | 6.37 | 11.5 | 79.8 | > 100 | 8.71 | > 100 | > 100 | > 100 | 7.61
CC(C)NCC(O)c1ccc(O)c2ncccc12 (stereo not given) | > 100 | > 100 | > 100 | > 100 | > 100 | 78.7 | > 100 | > 100 | > 100 | > 100
CO[C@H]1CC[C@]2(C)C3=CC[C@@]4(C)C(CC[C@@H]4C(C)CC[C@@H](C)C(C)C)C(=CCC2C1)O3 (stereo not given in full) | > 25 | > 25 | > 25 | > 25 | > 25 | > 7.9 | > 25 | > 25 | > 25 | > 25
c1ccc(C(c2cccc3c2ccc2ccccc23)C(c2ccccc2)c2cccc3c2ccc2ccccc23)cc1 (stereo not given) | > 100 | > 100 | > 100 | > 100 | > 100 | > 100 | > 100 | > 100 | > 100 | > 100
C/C(=N/NC(=S)N(C)C)c1ccccc1O | > 49.8 | > 38.2 | > 100 | > 100 | 82.9 | > 100 | 30.1 | > 100 | > 100 | > 100
Nc1ncnc2c1sc(=S)n2-c1ccccc1 | > 100 | > 100 | > 100 | > 100 | > 100 | > 100 | > 100 | > 100 | > 100 | > 100
